The values that follow come from ChEMBL document CHEMBL3507680, “University of Dundee, Gates Library screen for HepG2 cell viability”.

The series is described as follows: Human HepG2 cell viability assay in 384 well format. The class given is toxicity, cell-based. Also noted: dose 125 nL, time 70.5 hour; cytotoxicity at 70.5 h: concentration not given beside the values. The following applies: HepG2 cells, read-out: Inhibition.
`CC(C)CN1CCNC(=O)C12CCN(S(=O)(=O)c1ccc(F)cc1)CC2`: the cytotoxicity at 70.5 h is -3.61%.
On to `CC(C)NC(=O)C1CCC2(CCNCC2)C1` (stereo not drawn), for which the cytotoxicity at 70.5 h was -1.82%.
Under `O=S(=O)(C1CC1)N1CCO[C@H]2[C@H](OCC3CC3)CC[C@@H]21` stands 16.9%.
On to `N#Cc1cccc(C(=O)N2CCn3c(Cn4cncn4)cnc3C2)c1`, for which the cytotoxicity at 70.5 h is -5.58%.
With `O=C(c1ccccc1)N1Cc2nccn2CC(Cn2ncccc2=O)C1` (stereo not drawn) the figure was -6.78%; with `O=c1cccnn1CC1CN(c2ncc(F)cn2)Cc2nccn2C1` (stereo not drawn), -10.5%; with `O=C(CC1CC1)N1Cc2nccn2CC(Cn2ncccc2=O)C1` (stereo not drawn), -6.18%.
As for `Cc1ccc(C(=O)N2CCc3ncc(Cn4cccn4)n3CC2)o1`, the cytotoxicity at 70.5 h is -3.58%.
Take `CC(=O)NCC(=O)N1CCC2(CC1)NC(=O)CC2c1cnn(C)c1` (stereo not drawn): the cytotoxicity at 70.5 h was -8.17%.
In the case of `C1CC(CN2C[C@@H]3C[C@@H](c4nnc(C5CC5)o4)O[C@@H]3C2)CCO1`, the cytotoxicity at 70.5 h is -7.69%.
With `O=C(NC1CCCC1)c1cc2c(s1)CCN2C(=O)c1ccccc1` the figure was 0.186%; with `COCCN1CCCc2sc(C(=O)NCC3CCCO3)nc21` (stereo not drawn), 31.2%.
Under `COCCN1Cc2ccccc2C2(CCN(C(=O)c3ccco3)CC2)C1` stands 1.21%.
With `O=C(NCC1CCCO1)c1nc2c(s1)CCCN2Cc1ccccc1` (stereo not drawn), the cytotoxicity at 70.5 h was -4.02%.
For `CNC(=O)[C@H]1C[C@@H]2CN(C(=O)c3ccoc3)C[C@@H]2N1S(C)(=O)=O`, the cytotoxicity at 70.5 h is -12%.
With `CNC(=O)[C@H]1C[C@@H]2CN(C(=O)c3ccc(C)o3)C[C@@H]2N1S(C)(=O)=O` the figure was -9.33%; with `CC1c2ncc(Cn3cncn3)n2CCN1C(=O)[C@H]1CCCO1` (stereo partly drawn), -8.44%.
With `Cn1cc(CN2CCC3(CC2)CN(C(=O)c2cnccn2)CCO3)cn1` the figure was -4.88%; with `O=C(C1CCOC1)N1CCN(Cc2cccnc2)c2ncccc2C1` (stereo not drawn), -7.36%; with `CC1c2ncc(Cn3cncn3)n2CCN1C(=O)c1ccsc1` (stereo not drawn), -4.72%.
With `CC1c2ncc(Cn3cncn3)n2CCN1C(=O)c1ccccn1` (stereo not drawn) the figure was 31.8%.
For the molecule `CN(C)C(=O)N1C[C@@H](C(=O)NCc2ccco2)C[C@H]2OCC[C@H]21`, the cytotoxicity at 70.5 h was -4.06%.
Turning to `CCOCC1CN(C(=O)c2ccnnc2)Cc2cnn(C)c21` (stereo not drawn), the cytotoxicity at 70.5 h is -4.89%.
With `O=C(N1CCCC1)N1CCOCC2(C1)CN(c1ccccc1)C(=O)CO2` (stereo not drawn) the figure was -3.56%.
With `O=C(c1cccs1)N1CCOCC2(C1)CN(c1ccccc1)C(=O)CO2` (stereo not drawn), the cytotoxicity at 70.5 h is -9.8%.
For `CC(C)Nc1nc(N2CCCC2)nc2c1CN(C)CC2`, the cytotoxicity at 70.5 h was -9.83%.
For `COCC(=O)N1CCC2(C1)c1ccccc1S(=O)(=O)N2CCC(C)C` (stereo not drawn), the cytotoxicity at 70.5 h is -5.31%.
For the molecule `O=C(c1cc[nH]n1)N1CCOCC2(C1)CN(c1ccccc1)C(=O)CO2` (stereo not drawn), the cytotoxicity at 70.5 h is -12.1%.
With `CCn1ncc2c1C(COC)CN(Cc1ccsc1)C2` (stereo not drawn), the cytotoxicity at 70.5 h was 1.82%.
With `COCC1c2nnn(CC3CC3)c2CCN1C(=O)c1ccnnc1` (stereo not drawn) the figure was -6.63%; with `O=C(NCC1CC1)[C@H]1CC[C@@H]2[C@@H](CCN2Cc2ccoc2)O1`, -12.5%; with `CC(=O)N1CCC2(CC1)CC[C@@]1(C(=O)N(C)C)CN(S(C)(=O)=O)C[C@@H]21`, 27.7%.
`O=C([C@H]1CCCO1)N1CCc2ncnc(NC3CC3)c2CC1`: the cytotoxicity at 70.5 h is -6.76%.
Under `Cc1ccc(CN2CCC3(C2)C(=O)N(CC(C)C)c2ccccc23)s1` (stereo not drawn) stands -7.14%; under `CC(=O)NCC(=O)N1C[C@H](OCc2cccnc2)[C@H]2COC[C@H]21`, 3.33%.
Under `O=C(c1ccnnc1)N1C[C@@H](OCC2CCCC2)[C@H]2OCCC[C@H]21` stands -3.04%.
`O=C(NCc1cccc(F)c1)N1CCC2(CC(=O)N(c3ccsc3)C2)C1` (stereo not drawn): the cytotoxicity at 70.5 h was 4.74%.
Turning to `CO[C@H]1CCN(c2ccc(C)nn2)[C@H]1Cc1cnn(C)c1`, the cytotoxicity at 70.5 h came out at 5.26%.
With `Cc1nc(N(C)C)nc2c1COCC21CCN(C(=O)NC(C)C)C1` (stereo not drawn) the figure was 4.31%.
With `O=C(Cc1ccccc1)N1CCC2(CC(=O)N(c3ccsc3)C2)C1` (stereo not drawn) the figure was -0.17%; with `CNC(=O)[C@H]1CCS(=O)(=O)[C@@H]2CN(Cc3ccc(OC)cc3)C[C@H]12`, -4.04%; with `O=C(N1CCOCC1)N1CCCC2(CCCNC2)C1` (stereo not drawn), 8.83%.
In the case of `Cc1ccc(C(=O)N2CCc3c(CNc4ncccn4)cncc3C2)o1`, the cytotoxicity at 70.5 h is -10.9%.
With `CC(C)C(=O)N1CCc2c(CN(C)Cc3ccco3)cncc2C1` the figure was -9.73%; with `O=C1CC[C@]2(CC[C@@H](NC3CCOC3)CC2)N1Cc1ccccc1` (stereo partly drawn), -1.97%.
Consider `Cc1ccc(CN2CCc3[nH]nc(C(=O)N(C)C)c3C2)o1`, for which the cytotoxicity at 70.5 h is -0.827%.
With `c1coc(CN2CCC3(CCOCC3COCC3CC3)CC2)c1` (stereo not drawn), the cytotoxicity at 70.5 h turned out to be 2.33%.
For the molecule `CC(=O)NCC(=O)N1Cc2nccn2CC(COc2cccnc2)C1` (stereo not drawn), the cytotoxicity at 70.5 h is -10.5%.
With `c1cncc(N2CCCC3(CCN(CC4CCCO4)CC3)C2)c1` (stereo not drawn), the cytotoxicity at 70.5 h is -7.19%.
With `Cc1cnc(N2Cc3nccn3CC(Cn3ncccc3=O)C2)nc1` (stereo not drawn) the figure was -1%; with `O=C(NCc1ccco1)[C@H]1C[C@@H]2CCN(c3cccc(F)c3)C[C@H]2O1`, -5.03%.
For the molecule `O=C(c1cnccn1)N1CCCC2(CCN(Cc3ccsc3)CC2)C1`, the cytotoxicity at 70.5 h amounted to 3.52%.
For `CNC(=O)[C@H]1C[C@@H]2CN(C(=O)c3ccncc3)C[C@@H]2N1S(C)(=O)=O`, the cytotoxicity at 70.5 h stood at 22.4%.
With `CC1c2ncc(Cn3cncn3)n2CCN1CC1CCOCC1` (stereo not drawn) the figure was -5.6%; with `O=C(c1ccco1)N1CCOCC2(C1)CN(c1cccnc1)C(=O)CO2` (stereo not drawn), -3.1%.
On to `O=C(NC1CC1)N1CCOCC2(CCN(Cc3cccs3)C2)C1` (stereo not drawn), for which the cytotoxicity at 70.5 h is -16%.
With `CC(C)CN1C(=O)C2(CCN(Cc3nccs3)C2)c2ccccc21` (stereo not drawn) the figure was -1.93%.
Turning to `COCCNC(=O)[C@H]1C[C@@H]2CCN(c3nncs3)C[C@H]2O1`, the cytotoxicity at 70.5 h is -4.17%.
As to `CCCS(=O)(=O)N1CCO[C@H]2[C@H](OCc3ccccn3)CC[C@@H]21`, the cytotoxicity at 70.5 h was -1.48%.
For the molecule `c1cnc(NC[C@@H]2CCC[C@@H]3CN(Cc4cccnc4)C[C@@H]32)nc1`, the cytotoxicity at 70.5 h was -2.09%.
In the case of `CN(C)C(=O)[C@@H]1CCO[C@@H]2CCN(CCc3ccccc3)C[C@@H]21`, the cytotoxicity at 70.5 h is 1.43%.
Under `Cc1ccc(N2CC[C@H]3OCC[C@@]3(C(=O)NC(C)C)C2)nn1` stands 1.98%; under `COCC1Cn2nnc(-c3cnn(C)c3)c2CN1Cc1ccc(C)s1` (stereo not drawn), 4.51%; under `O=C1CC[C@]2(CC[C@@H](NC3CCOC3)CC2)N1Cc1ccncc1` (stereo partly drawn), -2.28%.
On to `Cn1cc(N2C(=O)CC[C@@H]3[C@H]2CCN3CCc2ccccc2)cn1`, for which the cytotoxicity at 70.5 h amounted to 16.8%.
Regarding `CN(C)C1COC2(CCN(Cc3nccs3)CC2)C1` (stereo not drawn), the cytotoxicity at 70.5 h was -4.71%.
Under `Cn1nccc1-c1ccc2nc(C3CCN(CC4CC4)CC3)nn2c1` stands -12.2%; under `O=C1CC(c2ccncc2)C2(CCN(CC3CC3)CC2)N1` (stereo not drawn), 14.8%; under `O=C(CC1CC1)N1CCN(Cc2ccncc2)c2ncccc2C1`, -11.9%.
Under `Cc1nc(CN2CCc3cc(C(=O)O)c(N(C)C)nc3CC2)cs1` stands -5.8%; under `O=C(c1ccnnc1)N1CCN(Cc2ccncc2)c2ncccc2C1`, -6.87%; under `c1cnn(CCCO[C@@H]2CC[C@H]3[C@H]2OCCN3CC2CC2)c1`, -7.2%.
Under `COCC(=O)N1CCN(Cc2cccnc2)c2ncccc2C1` stands 1.38%.
Regarding `CN(Cc1cccnc1)[C@@H]1CN(C(=O)NC2CC2)[C@@H]2CCCO[C@H]12`, the cytotoxicity at 70.5 h was -6.43%.
With `Cc1nc(CN2C(=O)CCC23CCN(Cc2cccn2C)CC3)cs1`, the cytotoxicity at 70.5 h is -9.94%.
With `CN(Cc1cccnc1)[C@@H]1CN(C(=O)c2ccoc2)[C@@H]2CCCO[C@H]12` the figure was -11.9%; with `O=C(C1CC1)N1CCN(Cc2ccncc2)c2ncccc2C1`, -10.1%.
With `O=C(N1CCCO1)[C@@]12CCO[C@@H]1CCN(Cc1cccnc1)C2` the figure was -9.68%; with `CCOCC1CN(C(=O)Cc2ccccn2)Cc2cnn(C)c21` (stereo not drawn), -3.1%; with `CC1c2ncc(CNC(=O)C3CC3)n2CCN1Cc1ccccn1` (stereo not drawn), 0.0373%.
For the molecule `c1ccc(OC[C@]23COC[C@H]2CN(C2CCOCC2)C3)nc1`, the cytotoxicity at 70.5 h is -9.47%.
Under `CC(=O)N1CC(=O)N(c2cnn(C)c2)CC12CCN(Cc1ccsc1)C2` (stereo not drawn) stands 21.7%; under `COCCn1cc2c(n1)C(CNCc1ccco1)OCC2` (stereo not drawn), 22.8%.
Consider `CC(C)N(C)Cc1cnc2n1CCN(CCc1ccccc1)C2`, for which the cytotoxicity at 70.5 h was determined as 4.09%.
As for `COCCn1cc2c(n1)C(CNCc1ccc(F)cc1)OCC2` (stereo not drawn), the cytotoxicity at 70.5 h was found to be 0.574%.
With `Cn1cc(CN2CCC(F)(F)C3(CCN(c4cnccn4)C3)C2)cn1` (stereo not drawn) the figure was -0.766%; with `Cc1ccc(CN2CCC(F)(F)C3(CCN(c4cnccn4)C3)C2)o1` (stereo not drawn), -1.47%; with `CN1CC(=O)N(c2cccnc2)CC12CCN(C(=O)C1CCCCC1)C2` (stereo not drawn), 36.1%.
With `CN(Cc1cccnc1)C1COC2(CCN(Cc3nccs3)CC2)C1` (stereo not drawn) the figure was -11%; with `Cn1ccnc1CN1CC[C@H]2CO[C@H](CNc3ncccn3)[C@H]2C1`, -5.82%; with `O=C(c1ccncc1)N1CCN(Cc2cccnc2)c2ncccc2C1`, -8.91%.
Turning to `c1ccc(Cn2cc3c(n2)C(CNCc2ccco2)OCC3)nc1` (stereo not drawn), the cytotoxicity at 70.5 h was -0.917%.
With `COCc1cncc2c1CCN(Cc1ccccn1)C2` the figure was -0.455%.
